Laboratory results: article PMC11995724, “Antibiotic target discovery by integrated phenotypic and activity-based profiling of electrophilic fragments” (Cell chemical biology, 2025)
Where a name gives a salt, the structure may show the parent alone.

Test: in vitro
Conditions: human, hek293t cells

Row | SMILES | viability at 48 h, 25 µM
1 | COc1ccc(NC(=O)C(C#N)=Cc2cnc3c(C)cccn23)cc1 [9-L03, 2-cyano-N-(4-methoxyphenyl)-3-{8-methylimidazo[1,2-a]pyridin-3-yl}prop-2-enamide] | 111%
2 | C=CC(=O)N(Cc1cn2ccccc2n1)C1CC1 [3-J21, N-cyclopropyl-N-({imidazo[1,2-a]pyridin-2-yl}methyl)prop-2-enamide] | 73.1%
3 | Cc1cc(C)c(NC(=O)C(C#N)=Cc2ccccc2C)c(C)c1 [8-E13, 2-cyano-3-(2-methylphenyl)-N-(2,4,6-trimethylphenyl)prop-2-enamide] | 37.8%
4 | C=CC(=O)N1CCOC(c2noc(C(C)C)n2)C1 (stereo not shown) [1-O05, 1-{2-[5-(propan-2-yl)-1,2,4-oxadiazol-3-yl]morpholin-4-yl}prop-2-en-1-one] | 87%
5 | C=CC(=O)NC(C)c1nnnn1-c1ccccc1 (stereo not shown) [2-I11, N-[1-(1-phenyl-1H-1,2,3,4-tetrazol-5-yl)ethyl]prop-2-enamide] | 196%
6 | C=CC(=O)N1CCn2cccc2C1c1ccncc1 (stereo not shown) [3-M03, 1-[1-(pyridin-4-yl)-1H,2H,3H,4H-pyrrolo[1,2-a]pyrazin-2-yl]prop-2-en-1-one] | 45.2%
7 | C=CC(=O)Nc1cc(OC)cc(S(C)(=O)=O)c1 [1-H16, N-(3-methanesulfonyl-5-methoxyphenyl)prop-2-enamide] | 84.1%
8 | C=CC(=O)N1CCOC(c2nccs2)C1 (stereo not shown) [3-H09, 1-[2-(1,3-thiazol-2-yl)morpholin-4-yl]prop-2-en-1-one] | 69.4%
9 | C=CC(=O)NCc1nnnn1-c1ccc(F)cc1 [1-M22, N-{[1-(4-fluorophenyl)-1H-1,2,3,4-tetrazol-5-yl]methyl}prop-2-enamide] | 106%
10 | C=CC(=O)NCCC(=O)N1CCCC1c1cn(C)nc1C (stereo not shown) [3-E10, N-{3-[2-(1,3-dimethyl-1H-pyrazol-4-yl)pyrrolidin-1-yl]-3-oxopropyl}prop-2-enamide] | 95.2%
11 | CSc1ccccc1NC(=O)CN(C)C(=O)CCl [4-L03, 2-chloro-N-methyl-N-({[2-(methylsulfanyl)phenyl]carbamoyl}methyl)acetamide] | 0.451%
12 | O=C(CCl)NC(Cc1cccc(O)c1)c1ccccc1 (stereo not shown) [7-N20, 2-chloro-N-[2-(3-hydroxyphenyl)-1-phenylethyl]acetamide] | 0.777%
13 | C=CC(=O)Nc1ccc2occc2c1 [3-H14, N-(1-benzofuran-5-yl)prop-2-enamide] | 99.9%
14 | C=CC(=O)Nc1cc(SCc2ccccc2C)ncn1 [1-F08, N-(6-{[(2-methylphenyl)methyl]sulfanyl}pyrimidin-4-yl)prop-2-enamide] | 0.816%
15 | C=CC(=O)NCC1CNC(=O)c2ccccc21 (stereo not shown) [2-F17, N-[(1-oxo-1,2,3,4-tetrahydroisoquinolin-4-yl)methyl]prop-2-enamide] | 54.8%
16 | C=CC(=O)NCc1ccccc1S(=O)(=O)NC(C)(C)C [1-J03, N-{[2-(tert-butylsulfamoyl)phenyl]methyl}prop-2-enamide] | 160%
17 | O=C(O)C1CCN(C(=O)CCl)CC1 [6-O11, 1-(2-chloroacetyl)piperidine-4-carboxylic acid] | 113%
18 | CC(Cl)C(=O)NCCN1CCn2nccc2C1 (stereo not shown) [5-D13, 2-chloro-N-(2-{4H,5H,6H,7H-pyrazolo[1,5-a]pyrazin-5-yl}ethyl)propanamide] | 98.4%
19 | COc1ccccc1NC(=O)C(C)Cl (stereo not shown) [5-L20, 2-chloro-N-(2-methoxyphenyl)propanamide] | 91.3%
20 | O=C(Nc1cc(F)ccc1F)N1CCSSCC1 [10-H11, N-(2,5-difluorophenyl)-1,2,5-dithiazepane-5-carboxamide] | 94.9%
21 | O=C(CCl)Nc1ccccc1Cc1ccccc1 [4-N22, N-(2-benzylphenyl)-2-chloroacetamide] | 0.906%
22 | C=CC(=O)N(Cc1cc(F)c(F)c(F)c1)C(C)C1CCCO1 (stereo not shown) [1-L13, N-[1-(oxolan-2-yl)ethyl]-N-[(3,4,5-trifluorophenyl)methyl]prop-2-enamide] | 176%
23 | COc1cc(NC(=O)CCl)cc(OC)c1OC [4-N12, 2-chloro-N-(3,4,5-trimethoxyphenyl)acetamide] | 1.27%
24 | CC(Cl)C(=O)NC1(c2nnc[nH]2)CCC1 (stereo not shown) [6-F21, 2-chloro-N-[1-(4H-1,2,4-triazol-3-yl)cyclobutyl]propanamide] | 87.6%
25 | O=C(CCl)Nc1ccccc1C(=O)Nc1ccc(F)cc1 [6-D12, 2-(2-chloroacetamido)-N-(4-fluorophenyl)benzamide] | 0.805%
26 | Cc1nc([C@H]2CCCN2C(=O)C(C)Cl)cs1 (stereo partly drawn) [7-O04, 2-chloro-1-[(2R)-2-(2-methyl-1,3-thiazol-4-yl)pyrrolidin-1-yl]propan-1-one] | 95.2%
27 | CC(Cl)C(=O)N(C)C1CCCCC1 (stereo not shown) [5-J04, 2-chloro-N-cyclohexyl-N-methylpropanamide] | 94.1%
28 | O=C(CCl)NC1(c2nc(-c3ccccc3)c[nH]2)CCCC1 [7-J08, 2-chloro-N-[1-(4-phenyl-1H-imidazol-2-yl)cyclopentyl]acetamide hydrochloride] | 0.673%

Row | SMILES | viability at 48 h, 25 µM
29 | Cc1cc(NC(=O)CCl)n(-c2ccccc2)n1 [4-G05, 2-chloro-N-(3-methyl-1-phenyl-1H-pyrazol-5-yl)acetamide] | 0.983%
30 | C=CC(=O)N1CCC(CC(C)(C)C)C1 (stereo not shown) [2-O19, 1-[3-(2,2-dimethylpropyl)pyrrolidin-1-yl]prop-2-en-1-one] | 147%
31 | CCN1C(=O)CC[C@H](CNC(=O)C(C)Cl)[C@H]1c1cnn(C)c1 (mixture of isomers) [6-L13, rac-2-chloro-N-{[(2R,3S)-1-ethyl-2-(1-methyl-1H-pyrazol-4-yl)-6-oxopiperidin-3-yl]methyl}propanamide] | 100%
32 | C=CC(=O)Nc1c2c(cc3c1CCC3)CCC2 [1-C11, N-(1,2,3,5,6,7-hexahydro-s-indacen-4-yl)prop-2-enamide] | 45.8%
33 | CC(Cl)C(=O)Nc1ccc(OCc2ccccc2)cc1 (stereo not shown) [6-O13, N-[4-(benzyloxy)phenyl]-2-chloropropanamide] | 99.7%
34 | Cc1ccccc1NC(=O)C(C#N)=Cc1ccccc1Cl [8-N05, 3-(2-chlorophenyl)-2-cyano-N-(2-methylphenyl)prop-2-enamide] | 47.9%
35 | C=CC(=O)NCC1CCS(=O)(=O)C1(C)C (stereo not shown) [1-O16, N-[(2,2-dimethyl-1,1-dioxo-1lambda6-thiolan-3-yl)methyl]prop-2-enamide] | 103%
36 | O=C(CCl)NCCc1ccc(Cl)cc1Cl [6-M16, 2-chloro-N-[2-(2,4-dichlorophenyl)ethyl]acetamide] | 1.06%
37 | C=CC(=O)N1CCC(C(=O)NCc2ccc(C(N)=O)nc2)CC1 [3-N05, 5-({[1-(prop-2-enoyl)piperidin-4-yl]formamido}methyl)pyridine-2-carboxamide] | 59.8%
38 | Cc1c(Cl)cccc1N1C(=O)C=CC1=O [10-B17, 1-(3-chloro-2-methylphenyl)-2,5-dihydro-1H-pyrrole-2,5-dione] | 130%
39 | C=CC(=O)N1CCC(C(=O)Nc2ncc(CCO)s2)CC1 [2-A08, N-[5-(2-hydroxyethyl)-1,3-thiazol-2-yl]-1-(prop-2-enoyl)piperidine-4-carboxamide] | 79.1%
40 | O=C(CCl)NC1CCS(=O)(=O)CC1 [6-M08, 2-chloro-N-(1,1-dioxo-1lambda6-thian-4-yl)acetamide] | 53.7%
41 | COc1ccc(CC2CCN2C(=O)C(C)Cl)cc1 (stereo not shown) [5-O22, 2-chloro-1-{2-[(4-methoxyphenyl)methyl]azetidin-1-yl}propan-1-one] | 88.3%
42 | N#CCCN(C(=O)CCl)c1cccc(Cl)c1 [6-A17, 2-chloro-N-(3-chlorophenyl)-N-(2-cyanoethyl)acetamide] | -0.154%
43 | C=CC(=O)NCc1nc(C2CC2)cs1 [2-A19, N-[(4-cyclopropyl-1,3-thiazol-2-yl)methyl]prop-2-enamide] | 103%
44 | O=C(CCl)NCCc1cnn(-c2ccccc2)c1 [6-G22, 2-chloro-N-[2-(1-phenyl-1H-pyrazol-4-yl)ethyl]acetamide] | 1.31%
45 | Cc1cccc(NC(=O)[C@@H]2CCCN2C(=O)CCl)n1 [5-C06, (2S)-1-(2-chloroacetyl)-N-(6-methylpyridin-2-yl)pyrrolidine-2-carboxamide] | 0.946%
46 | C=CC(=O)N1CCCCC1CNC(C)=O (stereo not shown) [2-M07, N-{[1-(prop-2-enoyl)piperidin-2-yl]methyl}acetamide] | 186%
47 | CCN(Cc1ccccc1)C(=O)CCl [6-O21, N-benzyl-2-chloro-N-ethylacetamide] | 1.53%
48 | CCCCNC(=O)C(C#N)=Cc1ccc(F)cc1F [8-H14, N-butyl-2-cyano-3-(2,4-difluorophenyl)prop-2-enamide] | 103%
49 | C=CC(=O)NCc1cc(-c2ccco2)on1 [1-A21, N-{[5-(furan-2-yl)-1,2-oxazol-3-yl]methyl}prop-2-enamide] | 166%
50 | C=CC(=O)N1CCC(Cc2ccnn2C)CC1 [2-C19, 1-{4-[(1-methyl-1H-pyrazol-5-yl)methyl]piperidin-1-yl}prop-2-en-1-one] | 74.8%
51 | Cn1ccc(-c2nc(CNC(=O)CCl)cs2)n1 [6-B09, 2-chloro-N-{[2-(1-methyl-1H-pyrazol-3-yl)-1,3-thiazol-4-yl]methyl}acetamide hydrochloride] | 1.33%
52 | C=CC(=O)N1CCC(C(=O)N2CCN(CC(C)C)C(=O)C2C)CC1 (stereo not shown) [2-B08, 3-methyl-1-(2-methylpropyl)-4-[1-(prop-2-enoyl)piperidine-4-carbonyl]piperazin-2-one] | 83.8%
53 | Cc1ccc(C)c(N2C(=O)C=CC2=O)c1 [10-F13, 1-(2,5-dimethylphenyl)-2,5-dihydro-1H-pyrrole-2,5-dione] | 109%
54 | O=C(CCl)N1CCC(Cc2nc(-c3ccc(F)cn3)no2)CC1 [5-K18, 2-chloro-1-(4-{[3-(5-fluoropyridin-2-yl)-1,2,4-oxadiazol-5-yl]methyl}piperidin-1-yl)ethan-1-one] | 1.83%
55 | Cc1ccc(C)c(-c2cc(NC(=O)CCl)n(-c3ccccc3)n2)c1 [4-M14, 2-chloro-N-[3-(2,5-dimethylphenyl)-1-phenyl-1H-pyrazol-5-yl]acetamide] | 0.149%
